Test results reported in patent US8318804B2 (priority 2007, dated 2012).
≈ marks a conversion by molar mass, not a printed value.

Tests used:
[1] = tested on: influenza virus strain A/Wyoming/03/2003 (H3N2); assay type: cell-based, influenza A virus in MDCK cells
[2] = tested on: A/WY/03/2003 (H3N2) influenza virus; assay type: cell-based, influenza A virus in MDCK cells
A/WY/03/2003 = assay type: cell-based, influenza A virus in MDCK cells
influenza virus = assay type: cell-based, influenza virus in MDCK cells

SMILES: CCOC(=O)C([C@H]1C=C[C@@H](O)C1)[N+](=O)[O-] (stereo partly drawn) [EHCN, ethyl-(2R/S, 1′R,4′S)-2-(4′-hydroxy-2′-cyclopenten-1′-yl)-2-nitroacetate]
- cytopathic effect (CPE) observed under the microscope [1]: did not present complete CPE
- protection (cell viability assay) [2]: 75%
- EC50 against A/WY/03/2003 (A/WY/03/2003): 4.5 µg/mL (≈ 20.9 µM)
- plaque formation / antiviral activity in plaque reduction assay (influenza virus): fewer and smaller plaques than the untreated wells
